Test results: patent US10112929B2, “Lactams as inhibitors of rock” (BRISTOL-MYERS SQUIBB COMPANY, priority 2015, dated 2018)
Counter-ions that a name gives are not always drawn.
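Also: rho kinase enzyme reaction halted with EDTA, phospho- and non-phospho peptide separated for read-out, kinase activity inhibition derived across a dose-response series, DMSO under 2%.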

Each molecule was assayed against ROCK2 (Homo sapiens (Human), UniProt O75116) (assay: biochemical).
ROCK2, sequence (O75116 whole entry, species assumed): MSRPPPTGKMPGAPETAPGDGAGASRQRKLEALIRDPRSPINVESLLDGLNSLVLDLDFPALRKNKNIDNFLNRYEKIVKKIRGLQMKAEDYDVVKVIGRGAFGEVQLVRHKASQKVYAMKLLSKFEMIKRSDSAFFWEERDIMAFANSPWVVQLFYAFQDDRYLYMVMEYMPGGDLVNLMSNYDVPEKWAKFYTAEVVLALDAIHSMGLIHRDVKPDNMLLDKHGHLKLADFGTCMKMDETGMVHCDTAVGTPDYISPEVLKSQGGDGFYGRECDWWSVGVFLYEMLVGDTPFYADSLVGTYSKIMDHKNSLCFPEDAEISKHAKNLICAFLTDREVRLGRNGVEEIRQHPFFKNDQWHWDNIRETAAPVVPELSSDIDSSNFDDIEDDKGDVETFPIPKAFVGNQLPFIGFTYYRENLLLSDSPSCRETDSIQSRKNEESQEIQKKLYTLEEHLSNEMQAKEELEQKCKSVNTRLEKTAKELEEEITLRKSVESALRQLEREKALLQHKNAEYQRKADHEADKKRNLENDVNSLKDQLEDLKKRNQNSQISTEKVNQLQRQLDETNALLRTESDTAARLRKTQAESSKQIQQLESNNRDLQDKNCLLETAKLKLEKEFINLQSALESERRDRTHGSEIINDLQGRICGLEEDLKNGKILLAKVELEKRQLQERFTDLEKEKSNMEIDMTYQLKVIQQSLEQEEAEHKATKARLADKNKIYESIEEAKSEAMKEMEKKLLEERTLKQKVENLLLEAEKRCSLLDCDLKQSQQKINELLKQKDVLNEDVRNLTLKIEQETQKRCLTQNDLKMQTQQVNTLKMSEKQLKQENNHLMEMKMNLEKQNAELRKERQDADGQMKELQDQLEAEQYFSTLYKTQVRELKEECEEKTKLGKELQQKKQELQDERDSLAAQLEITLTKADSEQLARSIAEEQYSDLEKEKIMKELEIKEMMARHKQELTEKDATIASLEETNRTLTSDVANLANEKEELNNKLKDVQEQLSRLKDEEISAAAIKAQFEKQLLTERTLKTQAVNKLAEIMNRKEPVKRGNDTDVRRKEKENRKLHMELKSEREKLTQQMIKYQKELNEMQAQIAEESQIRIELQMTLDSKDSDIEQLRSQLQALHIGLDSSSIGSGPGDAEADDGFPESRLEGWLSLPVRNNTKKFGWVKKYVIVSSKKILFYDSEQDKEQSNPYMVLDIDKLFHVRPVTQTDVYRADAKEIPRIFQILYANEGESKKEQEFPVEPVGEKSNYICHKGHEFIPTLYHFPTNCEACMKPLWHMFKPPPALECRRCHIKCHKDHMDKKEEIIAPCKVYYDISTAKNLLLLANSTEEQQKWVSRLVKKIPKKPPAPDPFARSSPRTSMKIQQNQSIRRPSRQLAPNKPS
For `COc1cccc(OC2CCN(c3ccc(-c4cn[nH]c4)c(OC)n3)C2=O)c1` (single isomer, unassigned) [Example 171, 1-(6-methoxy-5-(1H-pyrazol-4-yl)pyridin 2-yl)-3-(3-methoxyphenoxy)pyrrolidin-2-one], the IC50 was < 10 nM.
In the case of `O=C1C(Nc2cccc(F)c2F)CCN1c1ccc(-c2cn[nH]c2)cc1` (single isomer, unassigned) [Example 23, 1-(4-(1H-pyrazol-4-yl)phenyl)-3-((2,3-difluorophenyl)amino)pyrrolidin-2-one], the IC50 is reported as < 10 nM.
An IC50 of 10 to 100 nM was found for `COc1cccc(NC2CCN(c3ccc(-c4ccnc(N)c4)cc3)C2=O)c1` (single isomer, unassigned) [Example 77, 1-(4-(2-aminopyridin-4-yl)phenyl)-3-((3-methoxyphenyl)amino)pyrrolidin-2-one] in this work.
An IC50 of 100 to 2200 nM was found for `O=C1C(Nc2cccc(OCC3CC3)c2)CCN1c1ccc(-c2cn[nH]c2)cn1` (single isomer, unassigned) [Example 320, 1-(5-(1H-pyrazol-4-yl)pyridin-2-yl)-3-((3-(cyclopropylmethoxy)phenyl)amino) pyrrolidin-2-one] in this work.
An IC50 of 10 to 100 nM was found for `CCc1cc(N2CCC(Nc3ccc(F)c(OC)c3)C2=O)ccc1-c1cn[nH]c1` (single isomer, unassigned) [Example 241, 1-(3-ethyl-4-(1H-pyrazol-4-yl)phenyl)-3-((4-fluoro-3-methoxyphenyl)amino) pyrrolidin-2-one] in this work.
With `COc1cc(F)cc(NC2CCN(c3ccc(-c4cn[nH]c4)c(OC)c3)C2=O)c1` (single isomer, unassigned) [Example 137, 3-((3-fluoro-5-methoxyphenyl)amino)-1-(3-methoxy-4-(1H-pyrazol-4-yl)phenyl) pyrrolidin-2-one] the IC50 was < 10 nM.
An IC50 of 100 to 2200 nM was found for `COc1ccc(F)c(NC2CCN(c3ccc(-c4cn[nH]c4)cc3F)C2=O)c1` (single isomer, unassigned) [Example 340, 1-(2-fluoro-4-(1H-pyrazol-4-yl)phenyl)-3-((2-fluoro-5-methoxyphenyl)amino) pyrrolidin-2-one] in this work.
An IC50 of 10 to 100 nM was found for `COc1cccc(NC2CCN(c3ccc(-c4ccnc5[nH]ccc45)c(OC)n3)C2=O)c1` (racemic) [Example 128, 1-(6-methoxy-5-(1H-pyrrolo[2,3-b]pyridin-4-yl)pyridin-2-yl)-3-((3-methoxyphenyl)amino) pyrrolidin-2-one] in this work.
An IC50 of 10 to 100 nM was found for `Nc1cccc(OC2CCN(c3ccc(-c4cn[nH]c4)cc3)C2=O)c1` (centres unmarked) [Example 113, 1-(4-(1H-pyrazol-4-yl)phenyl)-3-(3-aminophenoxy)pyrrolidin-2-one, TFA] in this work.
An IC50 of 100 to 2200 nM was found for `COc1nc(N2CCC(N3CCC(C(F)(F)F)CC3)C2=O)ccc1-c1cn[nH]c1` (racemic) [Example 285, 1-(6-methoxy-5-(1H-pyrazol-4-yl)pyridin-2-yl)-3-(4-(trifluoromethyl)piperidin-1-yl)pyrrolidin-2-one hydrochloride] in this work.
An IC50 of 100 to 2200 nM was found for `COc1cc(F)ccc1NC1CCN(c2ccc(-c3cn[nH]c3)c(OC)c2)C1=O` (single isomer, unassigned) [Example 143, 3-((4-fluoro-2-methoxyphenyl)amino)-1-(3-methoxy-4-(1H-pyrazol-4-yl)phenyl) pyrrolidin-2-one] in this work.
An IC50 of 100 to 2200 nM was found for `CCc1cc(N2CCC(Nc3ccc(F)c(OCC4CC4)c3)C2=O)ncc1-c1cn[nH]c1` (racemic) [Example 213, 3-((3-(cyclopropylmethoxy)-4-fluorophenyl)amino)-1-(4-ethyl-5-(1H-pyrazol-4-yl)pyridin-2-yl)pyrrolidin-2-one] in this work.
An IC50 of 10 to 100 nM was found for `COc1ccc(F)c(NC2CCN(c3ccc(-c4cn[nH]c4)cn3)C2=O)c1` (single isomer, unassigned) [Example 303, 1-(5-(1H-pyrazol-4-yl)pyridin-2-yl)-3-((2-fluoro-5-methoxyphenyl)amino)pyrrolidin-2-one] in this work.
An IC50 of 100 to 2200 nM was found for `COc1cc(NC2CCN(c3ccc(-c4cn[nH]c4)c(OC)c3)C2=O)ccc1F` (single isomer, unassigned) [Example 154, 3-((4-fluoro-3-methoxyphenyl)amino)-1-(3-methoxy-4-(1H-pyrazol-4-yl)phenyl) pyrrolidin-2-one] in this work.
An IC50 of 10 to 100 nM was found for `COc1cc(NC2CCN(c3ccc(-c4cn[nH]c4)cc3F)C2=O)ccc1F` (single isomer, unassigned) [Example 330, 3-((4-fluoro-3-methoxyphenyl)amino)-1-(2-fluoro-4-(1H-pyrazol-4-yl)phenyl) pyrrolidin-2-one] in this work.
`COc1cc(N2CCC(Nc3cccc(F)c3OC)C2=O)ccc1-c1cn[nH]c1` (single isomer, unassigned) [Example 151, 3-((3-fluoro-2-methoxyphenyl)amino)-1-(3-methoxy-4-(1H-pyrazol-4-yl)phenyl) pyrrolidin-2-one] was tested, and the IC50 was < 10 nM.
An IC50 of 10 to 100 nM was found for `COc1ccc2c(c1)CCN2C1CCN(c2ccc(-c3cn[nH]c3)cc2)C1=O` (single isomer, unassigned) [Example 42, 1-(4-(1H-pyrazol-4-yl)phenyl)-3-(5-methoxyindolin-1-yl)pyrrolidin-2-one] in this work.
`COc1cccc(NC2CCN(c3ccc(-c4cn[nH]c4)c(F)c3)C2=O)c1` (single isomer, unassigned) [Example 45, 1-(3-fluoro-4-(1H-pyrazol-4-yl)phenyl)-3-((3-methoxyphenyl)amino)pyrrolidin-2-one] was tested, and the IC50 was < 10 nM.
An IC50 of 10 to 100 nM was found for `COc1nc(N2CCC(Nc3cccc(-c4cnco4)c3)C2=O)ccc1-c1cn[nH]c1` (racemic) [Example 262, 1-(6-methoxy-5-(1H-pyrazol-4-yl)pyridin-2-yl)-3-((3-(oxazol-5-yl)phenyl)amino) pyrrolidin-2-one] in this work.
In the case of `COc1nc(N2CCC(Nc3cccc(S(N)(=O)=O)c3)C2=O)ccc1-c1cn[nH]c1` (racemic) [Example 268, 3-((1-(6-methoxy-5-(1H-pyrazol-4-yl)pyridin-2-yl)-2-oxopyrrolidin-3-yl)amino)benzenesulfonamide], the IC50 is reported as < 10 nM.
An IC50 of 10 to 100 nM was found for `COc1cc(N2CCC(Nc3c(F)cccc3OC)C2=O)ccc1-c1cn[nH]c1` (single isomer, unassigned) [Example 135, 3-((2-fluoro-6-methoxyphenyl)amino)-1-(3-methoxy-4-(1H-pyrazol-4-yl)phenyl) pyrrolidin-2-one] in this work.
An IC50 of 10 to 100 nM was found for `O=C1C(Oc2ccccc2Cl)CCN1c1ccc(-c2cn[nH]c2)cc1` (centres unmarked) [Example 110, 1-(4-(1H-pyrazol-4-yl)phenyl)-3-(2-chlorophenoxy)pyrrolidin-2-one] in this work.
With `COc1nc(N2CCC(N3CCOc4ccccc43)C2=O)ccc1-c1cn[nH]c1` (racemic) [Example 225, 3-(2H-benzo[b][1,4]oxazin-4(3H)-yl)-1-(6-methoxy-5-(1H-pyrazol-4-yl)pyridin-2-yl)pyrrolidin-2-one] the IC50 was < 10 nM.
With `COc1c(F)cccc1NC1CCN(c2ccc(-c3cn[nH]c3)cc2)C1=O` (single isomer, unassigned) [Example 15, 1-(4-(1H-pyrazol-4-yl)phenyl)-3-((3-fluoro-2-methoxyphenyl)amino)pyrrolidin-2-one] the IC50 was < 10 nM.
An IC50 of 100 to 2200 nM was found for `COc1cccc(NC2CCN(c3ncc(-c4cn[nH]c4)cc3F)C2=O)c1` (single isomer, unassigned) [Example 357, 1-(3-fluoro-5-(1H-pyrazol-4-yl)pyridin-2-yl)-3-((3-methoxyphenyl)amino) pyrrolidin-2-one] in this work.
With `COc1cc(N2CCC(Nc3cccc(F)c3)C2=O)ccc1-c1cn[nH]c1` (centres unmarked) [Example 72, 3-((3-fluorophenyl)amino)-1-(3-methoxy-4-(1H-pyrazol-4-yl)phenyl)pyrrolidin-2-one] the IC50 was < 10 nM.
